In experiment [1] the test system is capillary-associated cells (mostly endothelial cells) in neuroendocrine (pulmonary carcinoid) tumor microclusters. In words: In situ microcapillary viability assay (ISMCVA), fast green/H&E dye exclusion on tumor microclusters. The conditions noted are these: microclusters cultured for 96 hours in presence of bevacizumab; FIGS. 3B and 4B. In kind it is cell-based, human. The method, then: (§1) Solid tumors are minced to pieces smaller than 1 mm (small enough to be aspirated into a standard disposable 10 ml pipette) with high quality curved surgical scissors. Medium in which said tumors may have been transported is reserved, along with the supernatant from the tissue mince. Scissor-minced tumor pieces are digested with collagenase/DNase in RPMI-1640 containing antibiotics and 10% fetal calf serum. Specimens are digested in 50 ml disposable polypropylene centrifuge tubes, assisted by gentle mixing with plastic-coated, magnetic stirring bars over a stirring plate. Specimens are thusly mixed until complete gross digestion has taken place—typically about 2-3 hours for a 1-3 gram specimen. […]
(§2) Viable microaggregates are enriched from medium containing a mixture of microclusters that exist in the minced, digested tissue along with single cells, normal cells, red blood cells, dead cells, and debris by means of “quickspins.” Quickspins consist of repeated very brief centrifugations at 50-500×g, in which the centrifuge tube is first mixed by moderate hand-shaking, placed in a standard, room temperature, preparatory centrifuge, and then accelerated to the desired speed (determined for each centrifuge by empiric trials) and then immediately turned off once the centrifuge has reached the desired speed and then allowed to coast to a stop. […]

Experiment [2] concerns tumor cells in neuroendocrine (pulmonary carcinoid) tumor microclusters. Described as above. Format: cell-based, human. The conditions noted are these: microclusters cultured for 96 hours in presence of bevacizumab; FIGS. 3B and 4B. The method, then: as §1, §2

bevacizumab: in experiment [1], the “viability of capillary-associated cells (fast green staining)” value is reported as “most capillary-associated cells are dead”. Besides, the “viability of tumor cells (fast green / H/E staining)” value in experiment [2] is “tumor cells remain viable”.

These data come from US8192949B2, “Microaggregates including endothelial cells” (priority 2005, dated 2012).
